Values of other authors as cited in patent US9082274B2, “Odor generation alarm and method for informing unusual situation” (priority 2008, dated 2015).
Where two headings read alike, the source gives them in different places.

Experiments:
[1] = system: mice; settings: oral
[2] = system: rabbits
[3] = system: person; settings: with respect to a person, ppm by amount of substance
[4] = system: domestic rabbits; settings: AIT diluted to 0.1% to 10% with corn oil introduced into the eyes
[5] = system: person; settings: concentration in air, ppm by amount of substance
[6] = system: mice; settings: exposed for four hours
[7] = system: humans
[8] = system: rats; settings: exposed for four hours
[9] = orally administered; route not printed in b8
[10] = system: skin, eyes

## C=CCN=C=S [AIT, allyl isothiocyanate]
[1]
  orally administered lethal dose (LD50): 310 mg/kg
[2]
  acute dermal toxicity LD50: 88 mg/kg
[3]
  no observed effect concentration: 74.3 ppm
other
  solubility in water: does not dissolve easily in water
[4]
  ocular findings after instillation: nothing more than transient edema and conjunctival hyperemia
[5]
  concentration at which a person becomes unable to tolerate the atmosphere / strength of smell: ≥ 10 ppm
  concentration at which a person starts to notice a pungent odor: ~1 ppm
  concentration from which a person recognizes the smell of wasabi: around 5 ppm
[5]; listed as allyl isothiocyanate
  concentration at which a person becomes unable to tolerate the atmosphere / strength of smell: 10 ppm
[6]
  lethal inhaled concentration (inhaled LC50): 155 ppm
[7]
  lachrymatory effect: there is a lachrymatory effect on humans
[8]
  lethal inhaled concentration (inhaled LC50): 173 ppm

## CS [methyl mercaptan]
[9]
  lethal dose (LD50): 2.4 mg/kg
[10]; eye contact
  effect when entering the eyes: reddening and pain when entering the eyes
[10]; skin contact
  effect when coming into contact with the skin: reddening and pain of the skin
